The values below come from publication PMC5458547, “Discovery of first-in-class reversible dual small molecule inhibitors against G9a and DNMTs in hematological malignancies” (Nature Communications, 2017).

As usually defined, the IC50 is the concentration at which inhibition is half-maximal. A higher IC50 goes with weaker potency. A word on the % Inhibition: it is the percentage by which the read-out fell short of the control. A higher % Inhibition goes with strong suppression. A word on the inhibition: it is how much of the control response was suppressed. A lower inhibition goes with a weak effect. Broadly, the GI50 is the concentration giving 50% growth inhibition.

Where “and” joins values, the source holds several entries; their conditions need not be identical. Equal entries are not always repeated.

In data set [1] the target is T1, DNMT3B (Homo sapiens, UniProt Q9UBC3).
T1 construct: purchased BPS Bioscience (contract panel)
The data set is described as follows: Epigenetics selectivity panel (BPS Bioscience). It is filed as biochemical.

Data set [2] addresses T2, GLP (Homo sapiens, UniProt Q9H9B1).
T2 construct: purchased BPS Bioscience (contract panel)
T2 sequence (Q9H9B1 1-1298): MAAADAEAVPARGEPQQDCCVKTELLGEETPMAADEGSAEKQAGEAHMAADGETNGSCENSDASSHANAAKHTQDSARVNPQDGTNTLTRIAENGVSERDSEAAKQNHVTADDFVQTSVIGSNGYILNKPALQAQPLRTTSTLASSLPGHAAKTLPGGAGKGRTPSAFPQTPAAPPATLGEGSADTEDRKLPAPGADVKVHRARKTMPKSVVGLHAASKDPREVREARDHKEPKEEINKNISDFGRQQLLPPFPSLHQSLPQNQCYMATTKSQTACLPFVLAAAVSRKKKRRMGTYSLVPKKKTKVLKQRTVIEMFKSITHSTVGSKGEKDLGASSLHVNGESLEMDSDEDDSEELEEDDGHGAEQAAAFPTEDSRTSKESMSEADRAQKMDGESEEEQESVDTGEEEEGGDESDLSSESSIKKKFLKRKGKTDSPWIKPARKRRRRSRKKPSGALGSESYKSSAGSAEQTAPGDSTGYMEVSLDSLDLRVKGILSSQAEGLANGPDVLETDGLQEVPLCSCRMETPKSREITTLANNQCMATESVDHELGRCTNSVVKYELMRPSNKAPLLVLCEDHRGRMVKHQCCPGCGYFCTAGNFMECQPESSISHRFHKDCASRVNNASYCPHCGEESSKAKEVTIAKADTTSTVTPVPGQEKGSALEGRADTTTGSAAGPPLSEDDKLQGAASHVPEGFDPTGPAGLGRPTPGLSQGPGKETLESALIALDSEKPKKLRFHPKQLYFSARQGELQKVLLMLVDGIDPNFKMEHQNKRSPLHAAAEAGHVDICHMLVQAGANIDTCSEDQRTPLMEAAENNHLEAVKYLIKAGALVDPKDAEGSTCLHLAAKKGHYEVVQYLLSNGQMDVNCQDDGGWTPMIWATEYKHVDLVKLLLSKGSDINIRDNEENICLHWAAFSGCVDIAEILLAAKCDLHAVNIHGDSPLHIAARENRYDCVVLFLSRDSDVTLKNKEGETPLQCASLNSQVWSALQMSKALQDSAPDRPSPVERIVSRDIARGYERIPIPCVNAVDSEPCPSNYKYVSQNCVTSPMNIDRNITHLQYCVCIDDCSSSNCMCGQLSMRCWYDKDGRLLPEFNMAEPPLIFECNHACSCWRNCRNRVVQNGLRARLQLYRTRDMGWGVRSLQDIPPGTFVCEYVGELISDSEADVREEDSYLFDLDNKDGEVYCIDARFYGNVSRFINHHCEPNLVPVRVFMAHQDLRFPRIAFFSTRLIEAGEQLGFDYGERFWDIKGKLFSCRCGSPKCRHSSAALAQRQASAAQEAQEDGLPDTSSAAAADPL
The experiment in a line: Epigenetics selectivity panel (BPS Bioscience). Conditions: for IC50: chemiluminescence assay carried out at BPS. The class given is biochemical.

Data set [3] deals with T3, JMJD2D (Homo sapiens, UniProt Q6B0I6).
T3 construct: purchased DiscoverX KINOMEscan (kinases); BPS Bioscience (epigenetic targets)
T3 sequence (Q6B0I6 whole entry): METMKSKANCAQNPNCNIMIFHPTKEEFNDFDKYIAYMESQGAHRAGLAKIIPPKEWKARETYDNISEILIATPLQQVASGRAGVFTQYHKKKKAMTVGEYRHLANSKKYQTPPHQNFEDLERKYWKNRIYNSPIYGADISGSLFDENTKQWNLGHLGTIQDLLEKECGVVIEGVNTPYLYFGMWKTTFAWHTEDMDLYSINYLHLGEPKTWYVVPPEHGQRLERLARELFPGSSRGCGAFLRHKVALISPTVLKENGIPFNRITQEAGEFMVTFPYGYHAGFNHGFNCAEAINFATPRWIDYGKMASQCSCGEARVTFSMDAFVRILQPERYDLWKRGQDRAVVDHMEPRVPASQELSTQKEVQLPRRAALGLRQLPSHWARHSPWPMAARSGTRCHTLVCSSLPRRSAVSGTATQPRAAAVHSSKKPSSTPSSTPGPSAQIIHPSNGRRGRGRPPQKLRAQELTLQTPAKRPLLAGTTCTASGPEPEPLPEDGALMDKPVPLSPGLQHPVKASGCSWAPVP
The data set is described as follows: Epigenetics selectivity panel (BPS Bioscience). It is filed as biochemical.

The target in data set [4] is T4, Jarid1A (Homo sapiens, UniProt P29375).
T4 construct: purchased DiscoverX KINOMEscan (kinases); BPS Bioscience (epigenetic targets)
T4 sequence (P29375 whole entry): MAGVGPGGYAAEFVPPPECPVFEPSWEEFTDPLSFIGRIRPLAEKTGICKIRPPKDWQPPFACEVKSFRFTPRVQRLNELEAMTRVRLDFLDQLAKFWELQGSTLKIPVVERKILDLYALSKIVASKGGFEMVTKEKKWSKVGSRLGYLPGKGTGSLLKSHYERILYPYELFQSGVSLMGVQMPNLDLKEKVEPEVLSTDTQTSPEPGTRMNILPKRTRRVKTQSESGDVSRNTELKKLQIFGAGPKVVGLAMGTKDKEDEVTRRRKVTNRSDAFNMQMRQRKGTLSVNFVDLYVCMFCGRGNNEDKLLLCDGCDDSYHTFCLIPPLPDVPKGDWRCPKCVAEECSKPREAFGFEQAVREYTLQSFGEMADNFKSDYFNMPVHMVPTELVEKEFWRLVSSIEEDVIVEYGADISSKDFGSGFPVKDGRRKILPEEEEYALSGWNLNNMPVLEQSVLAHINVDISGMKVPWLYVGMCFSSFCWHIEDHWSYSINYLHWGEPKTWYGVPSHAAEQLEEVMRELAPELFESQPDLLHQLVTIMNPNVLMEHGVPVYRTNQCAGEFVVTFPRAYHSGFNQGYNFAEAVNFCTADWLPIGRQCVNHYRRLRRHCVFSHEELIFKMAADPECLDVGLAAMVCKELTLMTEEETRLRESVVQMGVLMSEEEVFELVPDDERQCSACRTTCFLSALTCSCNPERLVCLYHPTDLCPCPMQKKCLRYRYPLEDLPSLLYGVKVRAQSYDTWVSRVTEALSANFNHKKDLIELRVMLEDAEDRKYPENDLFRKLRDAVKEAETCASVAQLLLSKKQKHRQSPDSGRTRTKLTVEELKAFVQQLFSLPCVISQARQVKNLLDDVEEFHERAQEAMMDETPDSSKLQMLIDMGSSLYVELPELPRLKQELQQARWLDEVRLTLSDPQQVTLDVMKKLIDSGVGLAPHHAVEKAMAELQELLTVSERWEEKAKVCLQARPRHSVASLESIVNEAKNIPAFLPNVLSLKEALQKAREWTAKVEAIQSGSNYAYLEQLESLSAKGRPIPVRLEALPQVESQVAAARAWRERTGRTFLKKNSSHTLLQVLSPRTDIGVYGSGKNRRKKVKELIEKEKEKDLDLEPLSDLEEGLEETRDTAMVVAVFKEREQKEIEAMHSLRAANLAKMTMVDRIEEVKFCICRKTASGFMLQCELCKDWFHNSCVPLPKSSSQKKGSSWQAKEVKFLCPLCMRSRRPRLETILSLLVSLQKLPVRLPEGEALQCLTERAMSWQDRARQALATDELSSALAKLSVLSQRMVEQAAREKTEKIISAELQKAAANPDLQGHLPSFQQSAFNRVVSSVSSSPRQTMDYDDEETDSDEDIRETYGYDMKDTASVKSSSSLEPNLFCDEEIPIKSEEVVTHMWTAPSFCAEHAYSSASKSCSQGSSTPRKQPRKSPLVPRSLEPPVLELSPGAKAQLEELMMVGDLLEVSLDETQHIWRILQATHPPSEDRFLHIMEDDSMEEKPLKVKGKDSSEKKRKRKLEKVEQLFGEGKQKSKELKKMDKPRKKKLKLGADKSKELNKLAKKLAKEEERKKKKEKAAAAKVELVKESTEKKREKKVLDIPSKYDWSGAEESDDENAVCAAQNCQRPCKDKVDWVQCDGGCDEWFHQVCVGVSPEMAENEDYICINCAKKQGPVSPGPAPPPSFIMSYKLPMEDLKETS
The experiment in a line: Epigenetics selectivity panel (BPS Bioscience). The class given is biochemical.

The target of data set [5] is T5, Human HDAC6 (Homo sapiens, UniProt Q9UBN7).
T5 construct: purchased DiscoverX KINOMEscan (kinases); BPS Bioscience (epigenetic targets)
T5 sequence (Q9UBN7 whole entry): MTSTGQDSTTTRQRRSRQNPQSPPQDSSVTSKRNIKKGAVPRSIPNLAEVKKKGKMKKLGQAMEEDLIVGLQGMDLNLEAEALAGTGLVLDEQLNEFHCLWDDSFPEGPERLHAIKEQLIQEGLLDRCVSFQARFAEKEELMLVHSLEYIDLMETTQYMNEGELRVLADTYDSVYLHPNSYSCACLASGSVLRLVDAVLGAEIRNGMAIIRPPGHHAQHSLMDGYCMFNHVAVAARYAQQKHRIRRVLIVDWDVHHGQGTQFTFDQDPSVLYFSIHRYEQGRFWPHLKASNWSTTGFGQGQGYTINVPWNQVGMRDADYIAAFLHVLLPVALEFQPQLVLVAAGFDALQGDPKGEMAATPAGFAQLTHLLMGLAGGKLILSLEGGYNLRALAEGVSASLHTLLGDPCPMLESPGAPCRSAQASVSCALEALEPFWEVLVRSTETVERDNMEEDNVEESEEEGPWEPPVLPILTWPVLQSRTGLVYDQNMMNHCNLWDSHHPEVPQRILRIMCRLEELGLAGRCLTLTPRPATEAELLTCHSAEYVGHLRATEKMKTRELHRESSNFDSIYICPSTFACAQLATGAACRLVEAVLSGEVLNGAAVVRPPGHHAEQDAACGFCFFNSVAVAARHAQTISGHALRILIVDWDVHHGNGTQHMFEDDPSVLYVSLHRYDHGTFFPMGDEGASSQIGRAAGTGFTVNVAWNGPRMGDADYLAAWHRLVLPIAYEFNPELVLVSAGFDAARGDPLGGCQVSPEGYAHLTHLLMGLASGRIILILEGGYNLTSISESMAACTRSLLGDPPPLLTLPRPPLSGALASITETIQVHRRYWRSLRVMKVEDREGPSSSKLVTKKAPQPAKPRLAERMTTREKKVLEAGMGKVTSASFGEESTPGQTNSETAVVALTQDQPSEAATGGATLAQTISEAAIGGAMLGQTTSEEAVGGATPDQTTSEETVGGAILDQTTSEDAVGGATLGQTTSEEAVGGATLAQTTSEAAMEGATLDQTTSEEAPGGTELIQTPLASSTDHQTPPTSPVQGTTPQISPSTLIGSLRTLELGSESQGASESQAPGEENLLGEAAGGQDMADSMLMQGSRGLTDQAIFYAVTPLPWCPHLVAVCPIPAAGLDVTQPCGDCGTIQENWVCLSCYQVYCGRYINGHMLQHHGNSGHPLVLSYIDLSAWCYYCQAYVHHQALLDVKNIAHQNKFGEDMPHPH
The experiment in a line: HDAC6 enzyme activity assay. The class given is biochemical.

Data set [6] concerns the target T6, cytochrome P450 1A2 (Homo sapiens, UniProt P05177).
T6 construct: tissue BD Gentest; host or cells: human liver microsomes
The data set is described as follows: CYP inhibition in human liver microsomes. Conditions: 10 µM. It is filed as in vitro ADME. As to the method:
Positive control was obtained in the presence of the vehicle of the compounds. Negative control was obtained in the absence of HDAC enzyme activity. A best fit curve was fitted using GraphPad Prism 5 to derive the half maximal inhibitory concentration (IC50) from this curve. Results are the average of two […]
3A4) was evaluated in human liver microsomes at Wuxi (http://www.wuxi.com/). Test compounds (10 µM) and the corresponding substrates for each P450 isoform (20 µL) were incubated with 140 µL liver […]
reaction was terminated by adding 400 µL cold stop solution (200 ng/mL tolbutamide in ACN) and samples were centrifuged at 4000 rpm for 20 minutes. Supernatants were analyzed by LC-MS/MS (Shimadzu LC 20-AD - API 4000), using peak area ratio of analyte/internal standard. Test compounds and positive controls were tested in duplicates. The percentage of inhibition was calculated as the ratio of substrate metabolite detected in treated and non-treated wells.
This study was conducted by Equilibrium Dialysis at Wuxi (http://www.wuxi.com/). HT-Dialysis plate (Model HTD 96 b, Cat# 1006) and the dialysis membrane (molecular weight cut off 12-14 kDa, Cat# 1101) were purchased from HT Dialysis LLC (Gales Ferry, CT). Human plasma and CD-1 mouse plasma from Bioreclamation were thawed prior to experiment and the pH was adjusted at 7.4. […]
Results are the average of three replicates. […]
(In general: Microsomes from liver hold many membrane-bound enzymes, among them those of drug oxidation.)

Data set [7] has as its system LAL-CUN-2. The experiment in a line: Cell proliferation assay (MTS). The class given is cell-based. Conditions: Homo sapiens; ALL, 48 h; read-out: GI50.
For data set [8], the system named is MOLT-4. The data set is described as follows: Cell proliferation assay (MTS). The class given is cell-based. The settings on record: Homo sapiens, ALL, 48 h.
In data set [9] the test system is HEL. The data set is described as follows: Cell proliferation assay (MTS). It is filed as cell-based. The settings on record: Homo sapiens, AML, 48 h.
The test system of data set [10] is MOLM-13. The data set is described as follows: Cell proliferation assay (MTS). It is filed as cell-based. The settings on record: Homo sapiens, AML, 48 h.
Data set [11] deals with COLO-205. The experiment in a line: Cell proliferation assay (MTS). It is filed as cell-based. Conditions: Homo sapiens, Colorectal.
The subject of data set [12] is H187. The experiment in a line: Cell proliferation assay (MTS). It is filed as cell-based. The settings on record: Homo sapiens, NCI-H187; SCLC.

T6 sequence (P05177 whole entry): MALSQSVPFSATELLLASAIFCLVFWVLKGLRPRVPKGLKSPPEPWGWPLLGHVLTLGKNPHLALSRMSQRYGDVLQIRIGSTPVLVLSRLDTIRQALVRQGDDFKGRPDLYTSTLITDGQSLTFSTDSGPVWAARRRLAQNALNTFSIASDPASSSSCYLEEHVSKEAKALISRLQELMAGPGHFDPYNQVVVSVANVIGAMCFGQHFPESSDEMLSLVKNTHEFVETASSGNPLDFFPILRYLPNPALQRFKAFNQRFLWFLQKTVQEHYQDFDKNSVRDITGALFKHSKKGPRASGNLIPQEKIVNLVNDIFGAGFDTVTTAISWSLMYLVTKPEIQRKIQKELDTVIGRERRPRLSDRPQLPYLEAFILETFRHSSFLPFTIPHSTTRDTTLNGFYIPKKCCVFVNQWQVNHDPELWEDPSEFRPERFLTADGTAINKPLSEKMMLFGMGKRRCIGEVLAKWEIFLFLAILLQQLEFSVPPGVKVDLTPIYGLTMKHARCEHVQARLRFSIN

With `COc1cc2c(NC3CCN(C)CC3)cc(-c3ccc(C)o3)nc2cc1OCCCN1CCCC1` [CM-272, 6-methoxy-2-(5-methyl-2-furyl)-N-(1-methyl-4-piperidyl)-7-(3-pyrrolidin-1-ylpropoxy)quinolin-4-amine], the results for the IC50 in [1] and in data set [2] were 1200 nM and 2 nM, respectively. Further, the “% Inhibition at 10 μM: GLP” value in data set [2] (10 µM) is 100% and 75%. In addition, the inhibition at 10 µM is 5% in data set [3], 2% in data set [4] and 0% in [5]. The “P450s Inhibition: 1A2” value in [6] is under 10%. The GI50 is 664 nM in [7]; over 5000 nM in [8]; over 10000 nM in [9]; 604 nM in [10]; 679 nM in data set [11]; 1640 nM in [12].
For the compound `COc1cc2c(NCC3CCN(C)CC3)cc(-c3ccc(C)o3)nc2cc1OCCCN1CCCC1` [CM-579, 6-methoxy-2-(5-methyl-2-furyl)-N-[(1-methyl-4-piperidyl)methyl]-7-(3-pyrrolidin-1-ylpropoxy)quinolin-4-amine], the values for the IC50 in data set [1] and in [2] were 1000 nM and over 10000 nM, respectively. The inhibition at 10 µM in data set [3] amounted to 25%; in data set [4], 27%; in data set [5], 0%. For the same compound, the “P450s Inhibition: 1A2” value in [6] is reported as under 10%. The GI50 in data set [7] is 365 nM; in data set [8], over 10000 nM; in [9], over 10000 nM; in data set [10], 1020 nM; in data set [11] it was 275 nM; in data set [12], 1970 nM.
